Converted amounts (≈) assume the structure as drawn.
Assays:
A549 = test: Cytotoxicity against human A549 cells after 72 hrs by MTT assay; type: functional, cell-based; conditions: A549, 72 h
IMR-32 = test: Cytotoxicity against human IMR32 cells after 72 hrs by MTT assay; type: functional, cell-based; conditions: IMR-32, 72 h
COLO 205 = test: Cytotoxicity against human COLO205 cells after 72 hrs by MTT assay; type: functional, cell-based; conditions: COLO 205, 72 h
[1] = Cytotoxicity against human U87 cells after 72 hrs by MTT assay; type: functional, cell-based, U-87MG ATCC; conditions: U-87 MG
[2] = Alkylating activity of the compound in aqueous acetone solution assessed as half life of compound-NBP adduct formation after 30 mins by UV-Vis spectrophotometric analysis; type: physicochemical; conditions: buffer, 0.5 h

Compound | IC50 (A549) | IC50 (IMR-32) | IC50 (COLO 205) | IC50 [1] | t1/2 [2]
CC(=O)O[C@@]12CO[C@@H]1C[C@H](O)[C@@]1(C)C(=O)[C@H](O)C3=C(C)[C@@H](OC(=O)[C@H](O)[C@@H](NC(=O)OC(C)(C)C)c4ccccc4)C[C@@](O)([C@@H](OC(=O)c4ccccc4)[C@H]21)C3(C)C.O.O.O [DOCETAXEL] | 27.3 µg/mL | 23.7 µg/mL | 30.7 µg/mL | 20.7 µg/mL | 
O=C(CN(CCCl)CCCl)Nc1ccc(Cl)cc1C(=O)c1ccccc1Cl | 34.6 µg/mL (≈ 77.3 µM) | 30.8 µg/mL (≈ 68.8 µM) | 32.6 µg/mL (≈ 72.7 µM) | 24.5 µg/mL (≈ 54.7 µM) | 10.3 min
O=C(CN(CCCl)CCCl)Nc1ccc([N+](=O)[O-])cc1C(=O)c1ccc(Cl)cc1 | 36.7 µg/mL (≈ 79.9 µM) | 28.4 µg/mL (≈ 61.9 µM) | 38.9 µg/mL (≈ 84.9 µM) | 23.3 µg/mL (≈ 50.7 µM) | 8.4 min
O=C(CN(CCCl)CCCl)Nc1ccc(Cl)cc1C(=O)c1ccccc1 | 37.1 µg/mL (≈ 89.7 µM) | 29.4 µg/mL (≈ 71 µM) | 52.3 µg/mL (≈ 126 µM) | 29 µg/mL (≈ 70.1 µM) | 13.3 min
O=C(CN(CCCl)CCCl)Nc1ccc(Cl)cc1C(=O)c1ccc(Cl)cc1 | 37.3 µg/mL (≈ 83.3 µM) | 31.1 µg/mL (≈ 69.5 µM) | 28.7 µg/mL (≈ 64 µM) | 27.1 µg/mL (≈ 60.5 µM) | 8.9 min
O=C(O)CCCc1ccc(N(CCCl)CCCl)cc1 [CHLORAMBUCIL] | 21.1 µg/mL (≈ 69.3 µM) | 20.1 µg/mL (≈ 66 µM) | 26.7 µg/mL (≈ 87.7 µM) | 18.8 µg/mL (≈ 61.9 µM) | 
O=C(CN(CCCl)CCCl)Nc1ccc([N+](=O)[O-])cc1C(=O)c1ccccc1 | 64.8 µg/mL (≈ 153 µM) | 33.2 µg/mL (≈ 78.2 µM) | 32.9 µg/mL (≈ 77.5 µM) | 29.5 µg/mL (≈ 69.4 µM) | 11.8 min
O=C(CN(CCCl)CCCl)Nc1ccc([N+](=O)[O-])cc1C(=O)c1ccccc1Cl | 64.8 µg/mL (≈ 141 µM) | 31.4 µg/mL (≈ 68.4 µM) | 33.4 µg/mL (≈ 72.8 µM) | 43.7 µg/mL (≈ 95.4 µM) | 9.5 min

— ChEMBL document CHEMBL3046162, “Design, synthesis and evaluation of aminobenzophenone derivatives containing nitrogen mustard moiety as potential central nervous system antitumor agent” (Med Chem Res, 2013)
